Assay results taken from EP4567167A1, “ELECTROSPUN FIBERS COMPRISING SURFACE-REACTED CALCIUM CARBONATE AND ACTIVE INGREDIENTS” (Omya International AG, priority 2023, dated 2025).

Test: Production of drug-loaded fibers without SRCC by electrospinning
Conditions: PCL in chloroform/acetone
Method: The spinning dispersion was prepared by mixing the solid carriers into a 15%, w/w solution of PCL, that was dissolved in a mix of chloroform/acetone, (40/60,w/w). The polymer solution was prepared separately. Therefore, the polymer was added slowly to avoid formation of clumps and subsequently stirred for at least 24 h at room temperature.
The emitter was an assembly of 4 blunt needles (21G) that were surrounded by nitrogen gas saturated with acetone (Figure 3 b)) to avoid bearding at the tip of the needles due to fast evaporation of solvents from the polymer solution. The lateral movement was adapted to the width of the drum collector (0.3 m) at a speed of approx. 0.1 m/s. Working distance (distance between emitter and collector) was 0.2 m and liquid feed rate was kept at 3ml/h for each needle using a syringe pump. A total of 30 ml was spun. The potential was adjusted to approx. -20kV ± 2kV in order to maintain a stable spray. The dimensions of the collector (rotating drum) were 0.3 m in width and a diameter of 0.1 m. The drum was rotated at 500 rpm. The drum was covered with aluminum and finally coated with magnesium-stearate to avoid the product from adhering/sticking to the aluminum foil. The process was constantly supervised. Needles were cleaned and the electric potential was adjusted when necessary to maintain a stable spinning process.

## Nc1nc2c(ncn2COCCO)c(=O)[nH]1 [Acyclovir]
  solubility in the spinning solution: too low
